Source: patent publication US20030049697A1, “Family of mechanosensitive human potassium channels activated by polyunsaturated fatty acids and their use” (CENTRE NATIONAL DE LA RECHERCHE SCIENTIFIQUE, C.N.R.S., priority 2000, published 2003)

Key:
hTRAAK [1] = target: T1, hTRAAK (Homo sapiens, UniProt Q9NYG8); assay: Whole cell configuration electrophysiology of hTRAAK current in transfected COS cells; format: cell-based
T1 construct: expressed in transfected cells; host or cells: COS-7 cells, transient DEAE-dextran transfection of pIRES-CD8.hTRAAK
T1 sequence (Q9NYG8 1-393): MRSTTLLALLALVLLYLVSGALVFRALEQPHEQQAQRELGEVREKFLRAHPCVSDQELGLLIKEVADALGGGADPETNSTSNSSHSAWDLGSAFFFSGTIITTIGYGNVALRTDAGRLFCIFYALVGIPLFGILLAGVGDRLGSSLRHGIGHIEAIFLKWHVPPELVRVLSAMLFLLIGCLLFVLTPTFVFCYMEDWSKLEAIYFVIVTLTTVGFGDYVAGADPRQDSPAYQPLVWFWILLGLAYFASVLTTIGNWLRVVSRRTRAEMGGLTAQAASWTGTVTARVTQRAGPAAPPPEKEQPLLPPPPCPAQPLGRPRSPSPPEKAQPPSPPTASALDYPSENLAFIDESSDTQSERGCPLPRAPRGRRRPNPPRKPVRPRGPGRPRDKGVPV
Method: Electrophysiological experiments were performed in COS cells transfected in a temporary manner.
It has been shown that certain members of the family of K^+ channels with two P domains (TREK-1 and TASK-1) are opened by volatile general anesthetics (Patel et al., 1999). We, therefore, also investigated the effect of chloroform on hTRAAK.
In fact, the opening of the channel is mediated by a deformation of the membrane (Maingret et al., 1999 (a); Patel et al., 1998).
The COS-7 cells were maintained in Eagle medium as modified by Dulbecco supplemented with 10% fetal calf's serum. The plasmid pIRES-cD8-hTRAAK was transfected using the conventional DEAE dextran procedure. The positive cells were visualized 48 h after transfection using the method of beads covered by the anti-CD8 antibody (Maingret et al., 1999 (a); Maingret et al., 1999 (b)).
For the experiments on whole cells and the outside-in experiments, the pipette solution (INT) contained 150 mM KCl, […], 5 mM EGTA and 10 mM HEPES, pH adjusted with KOH. The bath solution (EXT) contained 150 mM NaCl, 5 mM KCl, 3 mM MgCl2, 1 mM CaCl2 and 10 mM HEPES, pH 7.4 adjusted with NaOH. For the inside-out experiments, the solution in the pipette was EXT and the bath solution was INT. The EXT solution rich in K^+ contained 150 mM KCl in place of 150 mM NaCl. To study the selectivity of the ions, the relationships between the current and the voltage were obtained at different ext. K^+ concentrations. For each concentration, NaCl was replaced in the EXT solution by equimolar KCl.
All of the products were obtained from Sigma. The fatty acids were dissolved in ethanol at the concentration of 100 mM, put under argon and stored at […] for one week.

hTRAAK [2] = target: T1, hTRAAK; assay: Excised patch (outside-out configuration) recording of hTRAAK in transfected COS cells; format: cell-based
Method: Under physiological conditions, the current induced by AA is outward rectifying and changes direction at […], n=7 (FIG. 5A). When the exterior Na^+ is replaced by K^+, the current becomes linear and the direction change potential is −0.6±0.8 mV, n=7 (FIG. 5B). hTRAAK is also activated by the polyunsaturated acid decosahexaenoate (10 μM, n=3), but is insensitive to the saturated fatty acids myristate, palmitate, stearate and arachinate (10 μM, n=6 to 8). […] The stimulation by AA of hTRAAK remains then when the patch is excised (FIG. 5C). The current induced by AA observed in an outside-out configuration is outward rectifying and changes direction at the reverse potential of K^+ (FIG. 5C, box). […] In fact, the opening of the channel is mediated by a deformation of the membrane (Maingret et al., 1999 (a); Patel et al., 1998). FIG. 5D illustrates the mechanical sensitivity of hTRAAK. In the reverse patch configuration, the activity of the channel is almost absent at atmospheric pressure. Application of negative pressure opens the channels in a dose-dependent manner.
The COS-7 cells were maintained in Eagle medium as modified by Dulbecco supplemented with 10% fetal calf's serum. The plasmid pIRES-cD8-hTRAAK was transfected using the conventional DEAE dextran procedure. […]

## Nc1nc2ccc(OC(F)(F)F)cc2s1 [riluzole]
hTRAAK [1]; no concentration or data printed
  activation of hTRAAK: activated

## C=C[C@H]1C[N@@]2CC[C@H]1C[C@@H]2[C@@H](O)c1ccnc2ccc(OC)cc12 [quinidine]
hTRAAK [1]; 100 μm, whole cell configuration
  sensitivity of hTRAAK to K+ channel blocking agent: insensitive

## ClC(Cl)Cl [chloroform]
hTRAAK [1]; 0.8 mM, n=8
  effect on the channel's activity: no effect

## [Ba+2] [barium]
hTRAAK [1]; 1 mM, whole cell configuration
  sensitivity of hTRAAK to K+ channel blocking agent: insensitive

## CC[N+](CC)(CC)CC [TEA]
hTRAAK [1]; 10 mM, whole cell configuration
  sensitivity of hTRAAK to K+ channel blocking agent: insensitive

## CC/C=C\C/C=C\C/C=C\C/C=C\C/C=C\C/C=C\CCC(=O)O [decosahexaenoate]
hTRAAK [1]; 10 μM, n=3
  activation of hTRAAK by polyunsaturated fatty acid: activated

## CCCCC/C=C\C/C=C\C/C=C\C/C=C\CCCC(=O)O [arachidonic acid]
hTRAAK [1]; 10 μm, whole cell configuration, at 0 mV, n=19
  potentiation of human TRAAK activity: 630±101%
hTRAAK [1]; by means of washing
  reversibility of activation: completely reversible
hTRAAK [1]; exterior Na+ replaced by K+, n=7
  direction change potential of the induced current: −0.6±0.8 mV
hTRAAK [1]; physiological conditions, n=7
  potential at which the induced current changes direction: -80.6 ± 0.9 mV
hTRAAK [2]
  stimulation of hTRAAK when the patch is excised: remains

## CCCCCCCCCCCCCCCCCCCC(=O)O [arachinate]
hTRAAK [1]; 10 μM, n=6 to 8
  sensitivity of hTRAAK to saturated fatty acids: insensitive

## Nc1ccncc1 [4AP]
hTRAAK [1]; 3 mM, whole cell configuration
  sensitivity of hTRAAK to K+ channel blocking agent: insensitive

## COc1ccc(Cl)cc1C(=O)NCCc1ccc(S(=O)(=O)NC(=O)NC2CCCCC2)cc1 [glibenclamide]
hTRAAK [1]; 10 μM, whole cell configuration
  sensitivity of hTRAAK to K+ channel blocking agent: insensitive
